Experimental findings from publication PMC9101087, “A Sensitive LC-MS/MS Method for the Simultaneous Determination of Two Thia-Analogous Indirubin N-Glycosides and Indirubin-3′-Monoxime in Plasma and Cell Culture Medium” (Molecules, 2022) are described below.

Structures are written as SMILES.

A short description of data set [1]: Storage stability in DMEM, LC-MS/MS after DMEM extraction. Type of data set: physicochemical. To be noted: for Stability 4 °C / Stability AS (autosampler) / Stability −20 °C / Stability BT (benchtop): 24 h; for Stability FT (freeze-thaw): freeze-thaw cycles; for Stability −80 °C 91 d: long-term freezing; for Stability BT (benchtop): room temperature. Here is the method:
(§1) To assess stability, low and high concentrations of all analytes were subjected to different storage conditions. […] For determination of long-term stability, samples were stored in either plasma or DMEM at –80 °C for 90 and 91 days, respectively. To measure short-term stability, samples were stored at room temperature, in an autosampler, at 4 °C, and at –20 °C for 24 h. In addition, freeze-thaw cycles were performed according to FDA guidance for the standard solutions. For comparison, at least three freshly prepared samples were prepared for each concentration level. With the exception of autosampler stability, the internal standard was always added to all samples before sample processing was started.
Regarding the medium, validation procedures were performed with high-glucose DMEM supplemented with 100 U/mL penicillin and 100 μg/mL streptomycin, but not with FBS. With the exception of selectivity, where both media (GlutaMAX™-I or UltraGlutamine^TM I supplement) were tested, only Gibco™ DMEM with GlutaMAX™-I was used for all other analytical procedures.
Liquid-liquid extraction was performed identically for plasma and DMEM samples. After addition of the 1.0 µM internal standard, 50 µL of 0.8 M alkaline carbonate buffer was added. The extraction was performed once with 890 µL ethyl acetate. Tubes were then shaken for 10 min at 1400 rpm using a Thermomixer 5436 (Eppendorf AG, Hamburg, Germany) followed by centrifugation for 5 min at 14,000 rpm using a Centrifuge 5415 C (Eppendorf AG, Hamburg, Germany). Subsequently, 850 µL of the supernatant was transferred to a new tube and evaporated to dryness for 35 min at 35 °C (8 min heating time) using a SpeedVac SPD130DLX (Thermo Fisher Scientific, Asheville, NC, USA). Reconstitution was performed with 200 µL of a acetonitrile/water/H2SO4 [3/0.5/0.5] mixture, shaken at 1400 rpm for 5 min, and centrifuged again at 14,000 rpm for 5 min. Finally, 155 µL of the sample was transferred to an LC vial and analyzed.
(§2) To assess stability, low and high concentrations of all analytes were exposed to different storage conditions. To determine long-term stability, samples were stored in either plasma or DMEM at −80 °C for 90 and 91 days, respectively. To determine short-term stability, samples were stored for 24 h on the bench at room temperature, in the autosampler, at 4 °C, and at −20 °C. In addition, freeze-thaw cycles were performed for the standard solutions according to FDA guidance. At least three freshly prepared samples per concentration level were prepared for comparison. With the exception of the stability test in the autosampler, the internal standard was always added to all samples before sample processing was started. However, to avoid concentration fluctuations due to possible degradation of the analytes, stock solutions were prepared twice a week and stored at −20 °C. Each storage condition was examined in the dark. For all conditions studied, n = 3–6 replicates were prepared.

The nature of data set [2]: Storage stability in human plasma, LC-MS/MS after plasma precipitation. Type of data set: in vitro ADME. To be noted: long-term freezing.
Assay in data set [3]: as above
Type of data set: in vitro ADME. To be noted: for Stability 4 °C / Stability AS (autosampler) / Stability −20 °C / Stability BT (benchtop): 24 h; for Stability FT (freeze-thaw): freeze-thaw cycles; for Stability BT (benchtop): room temperature. As for the experimental part: as §1
After mixing the 1.5 µM internal standard and the plasma sample, protein precipitation was commenced. Next, 190 µL of acetonitrile and 50 µL of 0.5 M sulfuric acid buffer were added. The tubes were then shaken at 1400 rpm for 5 min followed by centrifugation at 14,000 rpm for 5 min. Subsequently, 195 µL of the supernatant was transferred to an LC tube and analyzed.
as §2

Consider `O=C1/C(=C2/C(=O)N([C@@H]3O[C@H](CO)[C@@H](O)[C@H](O)[C@H]3O)c3ccccc32)Sc2ccccc21` [KD87, 3-[3′-oxo-benzo[b]thiophen-2′-(Z)-ylidene]-1-(β-D-glucopyranosyl)-oxindole], for which the “Stability 4 °C” value in data set [1] (3.0 nM) is 81.4 ± 3.3%; in data set [1] (40 nM), 84.5 ± 2.1%; in data set [3] (2.0 nM), 81.4 ± 3.1%; in data set [3] (167 nM) it was 84.5 ± 2.0%. The “Stability AS (autosampler)” value amounted to 101.2 ± 7.4% in data set [1] (3.0 nM), 81.7 ± 3.7% in data set [1] (40 nM), 105.7 ± 6.7% in data set [3] (2.0 nM) and 99.9 ± 4.8% in data set [3] (167 nM). In addition, the “Stability −20 °C” value is 87.7 ± 3.2% in data set [1] (3.0 nM), 84.2 ± 2.6% in data set [1] (40 nM), 94.6 ± 2.8% in data set [3] (2.0 nM) and 92.6 ± 2.6% in data set [3] (167 nM). Besides, the “Stability FT (freeze-thaw)” value in data set [1] (3.0 nM) is on record as 98.3 ± 5.4%; in data set [1] (40 nM), 101.9 ± 5.4%; in data set [3] (2.0 nM), 98.8 ± 5.6%; in data set [3] (167 nM), 97.9 ± 4.1%. Further, the “Stability −80 °C 91 d” value in data set [1] (3.0 nM) was determined as 97.8 ± 6.0%; in data set [1] (40 nM) it was 92.3 ± 7.8%; in data set [2] (2.0 nM), 96.7 ± 8.6%; in data set [2] (167 nM), 106.0 ± 1.4%. Moreover, the “Stability BT (benchtop)” value in data set [1] (3.0 nM) turned out to be 104.9 ± 4.0%; in data set [1] (40 nM) it was 98.3 ± 1.1%; in data set [3] (2.0 nM) it was 64.3 ± 5.6%; in data set [3] (167 nM), 75.0 ± 3.5%.
Take `O=C1/C(=C2/C(=O)N([C@@H]3O[C@H](CO)[C@@H](O)[C@H](O)[C@@H]3O)c3ccccc32)Sc2ccccc21` [KD85, 3-[3′-oxo-benzo[b]thiophene-2′-(Z)-ylidene]-1-(β-D-mannopyranosyl)-oxindole]: in data set [1] (3.0 nM), the “Stability 4 °C” value turned out to be 98.3 ± 2.2%, the “Stability AS (autosampler)” value is 75.6 ± 5.8%, the “Stability −20 °C” value is 86.8 ± 1.8% and the “Stability FT (freeze-thaw)” value is listed as 99.4 ± 4.0%. Also, in data set [1] (3.0 nM), the “Stability −80 °C 91 d” value was found to be 93.2 ± 6.9% and the “Stability BT (benchtop)” value was determined as 115.3 ± 1.8%. Further, in data set [1] (40 nM), the “Stability 4 °C” value was determined as 80.5 ± 1.8%, the “Stability AS (autosampler)” value turned out to be 71.6 ± 1.9%, the “Stability −20 °C” value is 81.9 ± 3.9% and the “Stability FT (freeze-thaw)” value is given as 99.9 ± 3.3%. For the same compound, in data set [1] (40 nM), the “Stability −80 °C 91 d” value stood at 92.7 ± 5.7% and the “Stability BT (benchtop)” value amounted to 100.5 ± 1.9%. In addition, the “Stability −80 °C 91 d” value in data set [2] (2.0 nM) worked out at 105.1 ± 12.4%. The “Stability −80 °C 91 d” value in data set [2] (167 nM) worked out at 108.2 ± 3.7%. In addition, in data set [3] (2.0 nM), the “Stability 4 °C” value is recorded as 81.3 ± 3.4%, the “Stability AS (autosampler)” value is 97.6 ± 8.0%, the “Stability −20 °C” value is 90.1 ± 5.7% and the “Stability FT (freeze-thaw)” value is listed as 107.9 ± 4.9%. Also, the “Stability BT (benchtop)” value in data set [3] (2.0 nM) turned out to be 57.5 ± 4.1%. Further, in data set [3] (167 nM), the “Stability 4 °C” value worked out at 85.5 ± 1.9%, the “Stability AS (autosampler)” value turned out to be 99.6 ± 4.1%, the “Stability −20 °C” value was 96.3 ± 2.3% and the “Stability FT (freeze-thaw)” value is 99.5 ± 3.8%. The “Stability BT (benchtop)” value in data set [3] (167 nM) is recorded as 70.3 ± 3.2%.
